Results reported in US12077503B2, “Substituted cyclic amides and their use as herbicides” (FMC CORPORATION, priority 2015, dated 2024).

Columns and labels:
Type in all cases: in vivo
Kochia (Kochia scoparia) [1] = experiment: Test A preemergence; conditions: Bassia scoparia, pre-emergence, 240 h, Preemergence; for pest or weed control at 31 g/ha: 31 g ai/ha, 0 to 100 scale where 0 is no effect and 100 is complete control, read-out: Kochia plant response rating; for pest or weed control at 125 g/ha: 125 g ai/ha, visual injury rating after approximately 10 d, read-out: Kochia plant response rating (0 to 100 scale, 0 is no effect, 100 is complete control)
Summary of the method: (§1)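 Visual injury, scored on a 0–100 scale relative to untreated controls, was recorded about 10 d after application. Treatments were a preemergence soil spray over planted seeds or a postemergence spray on plants at the one- to two-leaf stage, 2 to 10 cm tall, all in loam soil–sand blend in the greenhouse.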

[2] = test system: barnyardgrass (Echinochloa crus-galli); experiment: Test A preemergence; conditions: Echinochloa crus-galli, pre-emergence, 240 h, Preemergence; for pest or weed control at 125 g/ha: 125 g ai/ha, visual injury rating after approximately 10 d, read-out: Barnyardgrass plant response rating (0 to 100 scale, 0 is no effect, 100 is complete control); for pest or weed control at 31 g/ha: 31 g ai/ha, 0 to 100 scale (0 no effect, 100 complete control), read-out: Plant response rating, Barnyardgrass
Summary of the method: as §1

[3] = test system: giant foxtail (Setaria faberii); experiment: Test A preemergence; conditions: Setaria faberi, pre-emergence, 240 h, Preemergence; for pest or weed control at 125 g/ha: 125 g ai/ha, visual injury rating after approximately 10 d, read-out: Foxtail, Giant plant response rating (0 to 100 scale, 0 is no effect, 100 is complete control); for pest or weed control at 31 g/ha: 31 g ai/ha, 0 to 100 scale (0 no effect, 100 complete control), read-out: Plant response rating, Foxtail, Giant
Summary of the method: as §1

[4] = test system: pigweed (Amaranthus retroflexus); experiment: Test A preemergence; conditions: Amaranthus retroflexus, pre-emergence, 240 h, Preemergence; for pest or weed control at 31 g/ha: 31 g ai/ha, 0 to 100 scale where 0 is no effect and 100 is complete control, read-out: Pigweed plant response rating; for pest or weed control at 125 g/ha: 125 g ai/ha, visual injury rating after approximately 10 d, read-out: Pigweed plant response rating (0 to 100 scale, 0 is no effect, 100 is complete control)
[5] = test system: ragweed (common ragweed, Ambrosia elatior); experiment: Test A preemergence; conditions: Ambrosia artemisiifolia, pre-emergence, 240 h, Preemergence; for pest or weed control at 31 g/ha: 31 g ai/ha, 0 to 100 scale where 0 is no effect and 100 is complete control, read-out: Ragweed plant response rating; for pest or weed control at 125 g/ha: 125 g ai/ha, visual injury rating after approximately 10 d, read-out: Ragweed plant response rating (0 to 100 scale, 0 is no effect, 100 is complete control)
Summary of the method: as §1

[6] = test system: ryegrass, Italian (Italian ryegrass, Lolium multiflorum); experiment: Test A preemergence; conditions: Lolium multiflorum, pre-emergence, 240 h, Preemergence; for pest or weed control at 31 g/ha: 31 g ai/ha, 0 to 100 scale where 0 is no effect and 100 is complete control, read-out: Ryegrass, Italian plant response rating; for pest or weed control at 125 g/ha: 125 g ai/ha, visual injury rating after approximately 10 d, read-out: Ryegrass, Italian plant response rating (0 to 100 scale, 0 is no effect, 100 is complete control)
Summary of the method: as §1

[7] = test system: Galium (catchweed bedstraw, Galium aparine); experiment: Test A postemergence; conditions: Galium, post-emergence, 240 h, Postemergence, read-out: Plant response rating, Galium; for pest or weed control at 125 g/ha: 125 g ai/ha, visual injury after approximately 10 d, 0 to 100 scale where 0 is no effect and 100 is complete control; for pest or weed control at 31 g/ha: 31 g ai/ha, visual injury after approx. 10 d, 0 to 100 scale, 0 no effect, 100 complete control
Summary of the method: as §1

Kochia (Kochia scoparia) [8] = experiment: Test A postemergence; conditions: Bassia scoparia, post-emergence, 240 h, Postemergence, read-out: Plant response rating, Kochia; for pest or weed control at 125 g/ha: 125 g ai/ha, visual injury after approximately 10 d, 0 to 100 scale where 0 is no effect and 100 is complete control; for pest or weed control at 31 g/ha: 31 g ai/ha, visual injury after approx. 10 d, 0 to 100 scale, 0 no effect, 100 complete control
Summary of the method: as §1

[9] = test system: barnyardgrass (Echinochloa crus-galli); experiment: Test A postemergence; conditions: Echinochloa crus-galli, post-emergence, 240 h, Postemergence, read-out: Plant response rating, Barnyardgrass; for pest or weed control at 125 g/ha: 125 g ai/ha, visual injury after approximately 10 d, 0 to 100 scale where 0 is no effect and 100 is complete control; for pest or weed control at 31 g/ha: 31 g ai/ha, visual injury after approx. 10 d, 0 to 100 scale, 0 no effect, 100 complete control
Summary of the method: as §1

[10] = test system: blackgrass (Alopecurus myosuroides); experiment: Test A postemergence; conditions: Alopecurus myosuroides, post-emergence, 240 h, Postemergence, read-out: Plant response rating, Blackgrass; for pest or weed control at 125 g/ha: 125 g ai/ha, visual injury after approximately 10 d, 0 to 100 scale where 0 is no effect and 100 is complete control; for pest or weed control at 31 g/ha: 31 g ai/ha, visual injury after approx. 10 d, 0 to 100 scale, 0 no effect, 100 complete control
Summary of the method: as §1

corn (Zea mays) = experiment: Test A postemergence; conditions: Zea mays, post-emergence, 240 h, Postemergence; for Corn plant response rating (crop injury, 0 = no effect, 100 = complete kill) at 125 g/ha: 125 g ai/ha, visual injury after approximately 10 d, 0 to 100 scale where 0 is no effect and 100 is complete control; for Corn plant response rating (crop injury, 0 = no effect, 100 = complete kill) at 31 g/ha: 31 g ai/ha, visual injury after approx. 10 d, 0 to 100 scale, 100 complete control
Summary of the method: as §1

[11] = test system: giant foxtail (Setaria faberii); experiment: Test A postemergence; conditions: Setaria faberi, post-emergence, 240 h, Postemergence, read-out: Plant response rating, Foxtail, Giant; for pest or weed control at 125 g/ha: 125 g ai/ha, visual injury after approximately 10 d, 0 to 100 scale where 0 is no effect and 100 is complete control; for pest or weed control at 31 g/ha: 31 g ai/ha, visual injury after approx. 10 d, 0 to 100 scale, 0 no effect, 100 complete control
Summary of the method: as §1

[12] = test system: pigweed (Amaranthus retroflexus); experiment: Test A postemergence; conditions: Amaranthus retroflexus, post-emergence, 240 h, Postemergence, read-out: Plant response rating, Pigweed; for pest or weed control at 125 g/ha: 125 g ai/ha, visual injury after approximately 10 d, 0 to 100 scale where 0 is no effect and 100 is complete control; for pest or weed control at 31 g/ha: 31 g ai/ha, visual injury after approx. 10 d, 0 to 100 scale, 0 no effect, 100 complete control
Summary of the method: as §1

[13] = test system: ragweed (common ragweed, Ambrosia elatior); experiment: Test A postemergence; conditions: Ambrosia artemisiifolia, post-emergence, 240 h, Postemergence, read-out: Plant response rating, Ragweed; for pest or weed control at 125 g/ha: 125 g ai/ha, visual injury after approximately 10 d, 0 to 100 scale where 0 is no effect and 100 is complete control; for pest or weed control at 31 g/ha: 31 g ai/ha, visual injury after approx. 10 d, 0 to 100 scale, 0 no effect, 100 complete control
Summary of the method: as §1

[14] = test system: ryegrass, Italian (Italian ryegrass, Lolium multiflorum); experiment: Test A postemergence; conditions: Lolium multiflorum, post-emergence, 240 h, Postemergence, read-out: Plant response rating, Ryegrass, Italian; for pest or weed control at 125 g/ha: 125 g ai/ha, visual injury after approximately 10 d, 0 to 100 scale where 0 is no effect and 100 is complete control; for pest or weed control at 31 g/ha: 31 g ai/ha, visual injury after approx. 10 d, 0 to 100 scale, 0 no effect, 100 complete control
Summary of the method: as §1

[15] = test system: wheat (Triticum aestivum); experiment: Test A postemergence; conditions: Triticum aestivum, post-emergence, 240 h, Postemergence, read-out: Plant response rating, Wheat; for plant injury at 125 g/ha: 125 g ai/ha, visual injury after approximately 10 d, 0 to 100 scale where 0 is no effect and 100 is complete control; for plant injury at 31 g/ha: 31 g ai/ha, visual injury after approx. 10 d, 0 to 100 scale, 0 no effect, 100 complete control
Summary of the method: as §1

[16] = test system: barnyardgrass (Echinochloa crus-galli); experiment: Test B flooded paddy test; conditions: Echinochloa crus-galli, 250 g ai/ha, Flood; 0 to 100 scale where 0 is no effect and 100 is complete control; read-out: Barnyardgrass plant response rating
Summary of the method: (§2)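 Percent control, visually estimated after 13–15 d in the greenhouse on a 0–100 basis, compares treated pots with untreated ones; compound was put into paddy water 3 cm above the soil when plants had two leaves.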

[17] = test system: ducksalad (Heteranthera limosa); experiment: Test B flooded paddy test; conditions: Heteranthera limosa, 250 g ai/ha, Flood; 0 to 100 scale where 0 is no effect and 100 is complete control; read-out: Ducksalad plant response rating
Summary of the method: as §2

rice (Oryra sativa) = experiment: Test B flooded paddy test; conditions: Oryza sativa, 250 g ai/ha, Flood; 0 to 100 scale where 0 is no effect and 100 is complete control; read-out: Rice plant response rating
Summary of the method: as §2

[18] = test system: sedge, umbrella (small-flower umbrella sedge, Cyperus difformis); experiment: Test B flooded paddy test; conditions: Cyperus difformis, 250 g ai/ha, Flood; 0 to 100 scale where 0 is no effect and 100 is complete control; read-out: Sedge, Umbrella plant response rating
Summary of the method: as §2

SMILES	pest or weed control at 31 g/ha (Kochia (Kochia scoparia) [1])	pest or weed control at 125 g/ha (Kochia (Kochia scoparia) [1])	pest or weed control at 125 g/ha [2]	pest or weed control at 31 g/ha [2]	pest or weed control at 125 g/ha [3]	pest or weed control at 31 g/ha [3]	pest or weed control at 31 g/ha [4]	pest or weed control at 125 g/ha [4]	pest or weed control at 31 g/ha [5]	pest or weed control at 125 g/ha [5]	pest or weed control at 31 g/ha [6]	pest or weed control at 125 g/ha [6]	pest or weed control at 125 g/ha [7]	pest or weed control at 31 g/ha [7]	pest or weed control at 125 g/ha (Kochia (Kochia scoparia) [8])	pest or weed control at 31 g/ha (Kochia (Kochia scoparia) [8])	pest or weed control at 125 g/ha [9]	pest or weed control at 31 g/ha [9]	pest or weed control at 125 g/ha [10]	pest or weed control at 31 g/ha [10]	also measured
O=C(Nc1cccc(F)c1F)[C@H]1C(=O)N(C2CC2)CC[C@@H]1c1ccc(F)cc1 [Compound 1003]	0%	0%	0%	0%	60%	0%	0%	0%	0%	0%	0%	0%	0%	0%	0%	0%	0%	0%	0%	0%	Corn plant response rating (crop injury, 0 = no effect, 100 = complete kill) at 125 g/ha (corn (Zea mays)): 0%; Corn plant response rating (crop injury, 0 = no effect, 100 = complete kill) at 31 g/ha (corn (Zea mays)): 0%; pest or weed control at 125 g/ha [11]: 0%; pest or weed control at 31 g/ha [11]: 0%; pest or weed control at 125 g/ha [12]: 0%; pest or weed control at 31 g/ha [12]: 0%; pest or weed control at 125 g/ha [13]: 0%; pest or weed control at 31 g/ha [13]: 0%; pest or weed control at 125 g/ha [14]: 0%; pest or weed control at 31 g/ha [14]: 0%; plant injury at 125 g/ha [15]: 0%; plant injury at 31 g/ha [15]: 0%; pest or weed control at 250 g/ha [16]: 0%; pest or weed control at 250 g/ha [17]: 0%; pest or weed control at 250 g/ha (rice (Oryra sativa)): 0%; pest or weed control at 250 g/ha [18]: 0%
CSc1ccccc1NC(=O)[C@H]1C(=O)N(C2CC2)CC[C@@H]1c1ccc(F)cc1 [Compound 1005]	0%	0%	0%	0%	0%	0%	0%	0%	0%	0%	0%	0%	0%	0%	0%	0%	0%	0%	0%	0%	Corn plant response rating (crop injury, 0 = no effect, 100 = complete kill) at 125 g/ha (corn (Zea mays)): 0%; Corn plant response rating (crop injury, 0 = no effect, 100 = complete kill) at 31 g/ha (corn (Zea mays)): 0%; pest or weed control at 125 g/ha [11]: 0%; pest or weed control at 31 g/ha [11]: 0%; pest or weed control at 125 g/ha [12]: 0%; pest or weed control at 31 g/ha [12]: 0%; pest or weed control at 125 g/ha [13]: 0%; pest or weed control at 31 g/ha [13]: 0%; pest or weed control at 125 g/ha [14]: 0%; pest or weed control at 31 g/ha [14]: 0%; plant injury at 125 g/ha [15]: 0%; plant injury at 31 g/ha [15]: 0%; pest or weed control at 250 g/ha [16]: 0%; pest or weed control at 250 g/ha [17]: 0%; pest or weed control at 250 g/ha (rice (Oryra sativa)): 0%; pest or weed control at 250 g/ha [18]: 0%
